From US6413541B1, “Disintegrating tablet in oral cavity and production thereof” (Dainippon Pharmaceutical Co., Ltd., priority 2000, dated 2002)
Like-named read-outs stand apart in the source and are kept apart here.

Columns and labels:
[1] = in 100 ml of purified water at about 25° C.; Merck Index, 12th ed., 10220 (1996); cited from earlier work
[2] = Procedure: These saccharides can be used alone or in a mixture of two or more of these saccharides, and can usually be contained in an amount of about 0.1 to about 20% by weight, preferably in an amount of about 0.5 to about 10% by weight in the present tablet.
Purified water at 25° C. (20 ml) was put into a beaker, and thereto was added each saccharide under stirring. Xylitol, sorbitol, glucose and sucrose were added in portions of 1 g, and erythritol was added in portions of 0.5 g, and lactose and mannitol were added in portions of 0.1 g, each. The mixture was stirred for one hour, and the dissolved amount of each saccharide was determined. The amount dissolving in 100 ml of water was converted and used as solubility of the saccharide in the present specification.

Row | Structure (SMILES) | solubility [1] | solubility [2]
1 | O=C[C@H](O)[C@@H](O)[C@H](O)CO [xylose] | about 125 g | –
2 | OC[C@@H](O)[C@@H](O)CO [erythritol] | – | about 47.5 g
3 | OC[C@H]1O[C@@](CO)(O[C@H]2O[C@H](CO)[C@@H](O)[C@H](O)[C@H]2O)[C@@H](O)[C@@H]1O [sucrose] | – | about 170 g
4 | OC[C@@H](O)[C@H](O)[C@@H](O)CO [xylitol] | – | about 135 g
5 | OC[C@@H](O)[C@@H](O)[C@H](O)[C@@H](O)CO [sorbitol] | – | about 130 g
